Test results published in ChEMBL document CHEMBL1201862, “PubChem BioAssay data set” (2004).
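Method: 48-hour compound exposure of cells in 96-well plates, five concentrations, linear interpolation of endpoints. Here, GI50 denotes the concentration required for 50% inhibition of growth.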 The source made the active and inactive calls. Rule as the data show it: active = GI50 up to about 1.1 µM and inactive = higher.

Columns and labels:
Assay in all cases: NCI-60 cell line screen, 48 h
A498 = tested on: A498
NCI-H226 = tested on: NCI-H226
SK-MEL-2 = tested on: SK-MEL-2
SW-620 = tested on: SW-620
MDA-MB-231 = tested on: MDA-MB-231
UO-31 = tested on: UO-31
SR = tested on: SR
RXF 393 = tested on: RXF 393
OVCAR-8 = tested on: OVCAR-8
U-251 = tested on: U-251
NCI/ADR-RES = tested on: NCI/ADR-RES
ACHN = tested on: ACHN
Hs-578T = tested on: Hs-578T
HCT-15 = tested on: HCT-15
PC-3 = tested on: PC-3
COLO 205 = tested on: COLO 205
SNB-75 = tested on: SNB-75
Malme-3M = tested on: Malme-3M
SF-295 = tested on: SF-295
HT-29 = tested on: HT-29
NCI-H522 = tested on: NCI-H522
SN12C = tested on: SN12C
MDA-MB-435 = tested on: MDA-MB-435
OVCAR-4 = tested on: OVCAR-4
TK-10 = tested on: TK-10
786-0 = tested on: 786-0
HCC 2998 = tested on: HCC 2998
MOLT-4 = tested on: MOLT-4
HCT-116 = tested on: HCT-116
UACC-62 = tested on: UACC-62
OVCAR-3 = tested on: OVCAR-3
A549 = tested on: A549
BT-549 = tested on: BT-549
EKVX = tested on: EKVX
DU-145 = tested on: DU-145
CAKI-1 = tested on: CAKI-1
MCF7 = tested on: MCF7
SNB-19 = tested on: SNB-19
SK-MEL-5 = tested on: SK-MEL-5
HOP-62 = tested on: HOP-62
SF-539 = tested on: SF-539
HOP-92 = tested on: HOP-92
MDA-N = tested on: MDA-N
KM12 = tested on: KM12
CCRF-CEM = tested on: CCRF-CEM
SF-268 = tested on: SF-268
NCI-H23 = tested on: NCI-H23
NCI-H460 = tested on: NCI-H460
RPMI-8226 = tested on: RPMI-8226
SK-OV-3 = tested on: SK-OV-3
K562 = tested on: K562
M14 = tested on: M14
IGROV-1 = tested on: IGROV-1
OVCAR-5 = tested on: OVCAR-5
T47D = tested on: T47D
UACC-257 = tested on: UACC-257
LOX IMVI = tested on: LOX IMVI
SK-MEL-28 = tested on: SK-MEL-28
HL-60 = tested on: HL-60

Q: Which results are given for `CC(C)(CN1CCCCC1)C(=O)CC(SCCS(=O)(=O)O)c1ccccc1` (stereo unspecified)?
A: GI50 (A498): 14.9 µM (inactive); GI50 (NCI-H226): 27.7 µM (inactive); GI50 (SK-MEL-2): 37.9 µM (inactive); GI50 (SW-620): 11.1 µM (inactive); GI50 (MDA-MB-231): 13.7 µM (inactive); GI50 (UO-31): 12.1 µM (inactive); GI50 (SR): 466 nM (active); GI50 (RXF 393): 10.8 µM (inactive); GI50 (OVCAR-8): 18.8 µM (inactive); GI50 (U-251): 21.6 µM (inactive); GI50 (NCI/ADR-RES): 13.4 µM (inactive); GI50 (ACHN): 16.9 µM (inactive); GI50 (Hs-578T): 36.1 µM (inactive); GI50 (HCT-15): 8.57 µM; GI50 (PC-3): 22.9 µM (inactive); GI50 (COLO 205): 13.6 µM (inactive); GI50 (SNB-75): 20.4 µM (inactive); GI50 (Malme-3M): 12.7 µM (inactive); GI50 (SF-295): 10.9 µM (inactive); GI50 (HT-29): 11.4 µM (inactive); GI50 (NCI-H522): 3.11 µM (inactive); GI50 (SN12C): 20 µM (inactive); GI50 (MDA-MB-435): 11.3 µM (inactive); GI50 (OVCAR-4): 17.6 µM (inactive); GI50 (TK-10): 16.9 µM (inactive); GI50 (786-0): 11 µM (inactive); GI50 (HCC 2998): 23.3 µM (inactive); GI50 (MOLT-4): 11.3 µM (inactive); GI50 (HCT-116): 5.9 µM (inactive); GI50 (UACC-62): 14 µM (inactive); GI50 (OVCAR-3): 5.87 µM (inactive); GI50 (A549): 27.4 µM (inactive); GI50 (BT-549): 15.3 µM (inactive); GI50 (EKVX): 14.1 µM (inactive); GI50 (DU-145): 11.2 µM (inactive); GI50 (CAKI-1): 15.5 µM (inactive); GI50 (MCF7): 10.2 µM (inactive); GI50 (SNB-19): 17.5 µM (inactive); GI50 (SK-MEL-5): 16.3 µM (inactive); GI50 (HOP-62): 30.8 µM (inactive); GI50 (SF-539): 12.6 µM (inactive); GI50 (HOP-92): 5.64 µM (inactive); GI50 (MDA-N): 16.3 µM (inactive); GI50 (KM12): 18.5 µM (inactive); GI50 (CCRF-CEM): 5.16 µM (inactive); GI50 (SF-268): 10 µM (inactive); GI50 (NCI-H23): > 10 µM (inactive); GI50 (NCI-H460): 11.9 µM (inactive); GI50 (RPMI-8226): 23.2 µM (inactive); GI50 (SK-OV-3): 55 µM (inactive); GI50 (K562): 2.7 µM (inactive); GI50 (M14): 9.38 µM (inactive); GI50 (IGROV-1): 26.4 µM (inactive); GI50 (OVCAR-5): 11.6 µM (inactive)

Q: What does the source list for `CN(C)CCNC(=O)c1cccc2c1Oc1c(cccc1[N+](=O)[O-])O2`?
A: GI50 (A498): 1.37 µM (inactive); GI50 (NCI-H226): 0.288 µM (active); GI50 (SK-MEL-2): 0.29 µM (active); GI50 (SW-620): 1.06 µM (active); GI50 (UO-31): 0.885 µM (active); GI50 (T47D): 323 nM (active); GI50 (SR): 462 nM (active); GI50 (RXF 393): 2.08 µM (inactive); GI50 (OVCAR-8): 1.71 µM (inactive); GI50 (U-251): 0.787 µM (active); GI50 (ACHN): 0.335 µM (active); GI50 (Hs-578T): 1.94 µM (inactive); GI50 (HCT-15): 0.544 µM; GI50 (PC-3): 1.95 µM (inactive); GI50 (COLO 205): 1.87 µM (inactive); GI50 (SNB-75): 1.24 µM (inactive); GI50 (Malme-3M): 1.33 µM (inactive); GI50 (UACC-257): 2 µM (inactive); GI50 (SF-295): 0.548 µM (active); GI50 (HT-29): 1.41 µM (inactive); GI50 (NCI-H522): 0.975 µM (active); GI50 (SN12C): 0.74 µM (active); GI50 (MDA-MB-435): 3.44 µM (inactive); GI50 (OVCAR-4): 5.04 µM (inactive); GI50 (TK-10): 1.69 µM (inactive); GI50 (LOX IMVI): 0.908 µM (active); GI50 (786-0): 0.564 µM (active); GI50 (HCC 2998): 1.04 µM (active); GI50 (MOLT-4): 0.298 µM (active); GI50 (HCT-116): 0.817 µM (active); GI50 (UACC-62): 0.419 µM (active); GI50 (OVCAR-3): 2.69 µM (inactive); GI50 (A549): 0.458 µM (active); GI50 (BT-549): 1.9 µM (inactive); GI50 (EKVX): 3.22 µM (inactive); GI50 (DU-145): 0.57 µM (active); GI50 (CAKI-1): 0.297 µM (active); GI50 (MCF7): 0.957 µM (active); GI50 (SK-MEL-5): 1.28 µM (inactive); GI50 (HOP-62): 0.472 µM (active); GI50 (SF-539): 1.39 µM (inactive); GI50 (MDA-N): 2.78 µM (inactive); GI50 (KM12): 1.26 µM (inactive); GI50 (CCRF-CEM): 0.371 µM (active); GI50 (SF-268): 2.97 µM (inactive); GI50 (NCI-H23): 1.44 µM (inactive); GI50 (NCI-H460): 0.413 µM (active); GI50 (RPMI-8226): 0.583 µM (active); GI50 (SK-MEL-28): 2.02 µM (inactive); GI50 (K562): 1.45 µM (inactive); GI50 (M14): 2.64 µM (inactive); GI50 (IGROV-1): 1.56 µM (inactive); GI50 (HL-60): 0.306 µM (active); GI50 (OVCAR-5): 2.18 µM (inactive)

Q: `CCOc1ccc2nc(NC(=O)C(=O)C3C(=O)C(CC4C(=O)c5ccccc5C4=O)C(=O)CC3(C)C)sc2c1` (stereo unspecified) was tested. Which GI50 (NCI-H226) did it give?
A: > 100 µM (inactive)

Q: What about the GI50 (SK-MEL-2) of the same molecule?
A: > 100 µM (inactive)

Q: And the GI50 (SW-620)?
A: > 100 µM (inactive)

Q: What about the GI50 (MDA-MB-231) of the same molecule?
A: 24 µM (inactive)

Q: And the GI50 (UO-31)?
A: 18.9 µM (inactive)

Q: What about the GI50 (RXF 393) of the same molecule?
A: > 100 µM (inactive)

Q: And the GI50 (OVCAR-8)?
A: > 100 µM (inactive)

Q: And the GI50 (U-251)?
A: > 100 µM (inactive)

Q: And the GI50 (NCI/ADR-RES)?
A: > 100 µM (inactive)

Q: And the GI50 (ACHN)?
A: > 100 µM (inactive)

Q: What about the GI50 (Hs-578T) of the same molecule?
A: > 100 µM (inactive)

Q: What about the GI50 (HCT-15) of the same molecule?
A: > 100 µM

Q: And the GI50 (PC-3)?
A: 65.8 µM (inactive)

Q: And the GI50 (COLO 205)?
A: > 100 µM (inactive)

Q: What about the GI50 (SNB-75) of the same molecule?
A: > 100 µM (inactive)

Q: And the GI50 (UACC-257)?
A: > 100 µM (inactive)

Q: What about the GI50 (SF-295) of the same molecule?
A: > 100 µM (inactive)

Q: What about the GI50 (HT-29) of the same molecule?
A: > 100 µM (inactive)

Q: And the GI50 (NCI-H522)?
A: > 100 µM (inactive)

Q: What about the GI50 (SN12C) of the same molecule?
A: > 100 µM (inactive)

Q: And the GI50 (MDA-MB-435)?
A: > 100 µM (inactive)

Q: And the GI50 (OVCAR-4)?
A: 56.1 µM (inactive)

Q: What about the GI50 (TK-10) of the same molecule?
A: > 100 µM (inactive)

Q: What about the GI50 (LOX IMVI) of the same molecule?
A: > 100 µM (inactive)

Q: What about the GI50 (786-0) of the same molecule?
A: > 100 µM (inactive)

Q: And the GI50 (HCC 2998)?
A: > 100 µM (inactive)

Q: And the GI50 (MOLT-4)?
A: 13.5 µM (inactive)

Q: And the GI50 (HCT-116)?
A: 86.7 µM (inactive)

Q: What about the GI50 (UACC-62) of the same molecule?
A: 90.4 µM (inactive)

Q: And the GI50 (OVCAR-3)?
A: 66.7 µM (inactive)

Q: What about the GI50 (A549) of the same molecule?
A: 87.5 µM (inactive)

Q: And the GI50 (BT-549)?
A: > 100 µM (inactive)

Q: And the GI50 (EKVX)?
A: 32.9 µM (inactive)

Q: What about the GI50 (DU-145) of the same molecule?
A: > 100 µM (inactive)

Q: What about the GI50 (CAKI-1) of the same molecule?
A: 80 µM (inactive)

Q: And the GI50 (MCF7)?
A: > 100 µM (inactive)

Q: And the GI50 (SNB-19)?
A: > 100 µM (inactive)

Q: What about the GI50 (SK-MEL-5) of the same molecule?
A: 96.4 µM (inactive)

Q: And the GI50 (HOP-62)?
A: > 100 µM (inactive)

Q: What about the GI50 (SF-539) of the same molecule?
A: > 100 µM (inactive)

Q: And the GI50 (HOP-92)?
A: 34.6 µM (inactive)

Q: And the GI50 (MDA-N)?
A: > 100 µM (inactive)

Q: And the GI50 (KM12)?
A: > 100 µM (inactive)

Q: What about the GI50 (CCRF-CEM) of the same molecule?
A: 30.8 µM (inactive)

Q: What about the GI50 (SF-268) of the same molecule?
A: > 100 µM (inactive)

Q: What about the GI50 (NCI-H23) of the same molecule?
A: 95.1 µM (inactive)

Q: What about the GI50 (NCI-H460) of the same molecule?
A: > 100 µM (inactive)

Q: And the GI50 (SK-OV-3)?
A: > 100 µM (inactive)

Q: And the GI50 (SK-MEL-28)?
A: > 100 µM (inactive)

Q: What about the GI50 (M14) of the same molecule?
A: > 100 µM (inactive)

Q: And the GI50 (IGROV-1)?
A: 44 µM (inactive)

Q: What about the GI50 (HL-60) of the same molecule?
A: 20.3 µM (inactive)

Q: What about the GI50 (OVCAR-5) of the same molecule?
A: > 100 µM (inactive)
